From US10532066B2, “Surfactant lipids, compositions thereof, and uses thereof” (National Jewish Health, priority 2007, dated 2020)

What was measured:
[1] = test system: primary rat alveolar macrophages; assay: LPS-induced NO production by rat alveolar macrophages; assay type: cell-based; settings: LPS 10 ng/ml, 24 h, liposomes; LPS without phospholipid = 100%
Protocol: (§1) FIG. 1. Anionic phospholipids inhibit inflammatory mediator production induced by LPS. Liposomes composed of sphingomyelin (SM), phosphatidylethanolamine (PE) dipalmitoyl-phosphatidylcholine ((DPPC), phosphatidylserine (PS), palmitoyl-oleoyl-phosphatidylglycerol (POPG) and phosphatidylinositol (PI) were formed by bath-sonication for 30 min at room temperature. LPS (10 ng/ml) and different concentrations of phospholipids were added to monolayer cultures of differentiated U937 cells (A), or primary rat alveolar macrophages (B). At 6 h after stimulation, media were collected and secreted TNF-α levels were determined in U937 cultures. NO production was determined 24 h after stimulating rat alveolar macrophages. LPS stimulation in the absence of phospholipid was set as 100%. […] The average TNF-α production upon LPS stimulation was (8.0±0.54 ng/ml). The average NO production upon LPS stimulation was 12.17±0.27 μM.
(§2) FIG. 2. The inhibitory effect of phosphatidylglycerols on LPS-induced inflammatory mediator production is molecular species specific. PG liposomes were formed by bath-sonication for 30 min at room temperature. LPS (10 ng/ml) and different concentrations of PG were added to monolayer cultures of differentiated U937 cells (A) or rat alveolar macrophages (B). Media TNF-α measurements were performed 6 h after stimulation. Media NO measurements were performed 24 h after stimulation. LPS stimulation without PG was set at 100%. The molecular species of PG shown on the graph are 8:0; dioctanoyl-phosphatidylglycerol, 12:0; dilauroyl-phosphatidylglycerol (DLPG), 14:0; dimyristoyl-phosphatidylglycerol (DMPG), 16:0; dipalmitoyl-phosphatidylglycerol (DPPG), 18:0; distearoyl-phosphatidylglycerol, 16:0/18:1; palmitoyl-oleoyl-phosphatidylglycerol (POPG). […] The average TNF-α production upon LPS stimulation was 11.3±0.7 ng/ml. The average NO production upon LPS stimulation was 10.1±0.6 μM.
Rat alveolar macrophages were isolated from bronchoalveolar lavage fluid (BALF) of Sprague-Dawley rats. The lungs were lavaged with pyrogen-free saline, and alveolar macrophages were sedimented by centrifugation at 150×g×5 min. Isolated macrophages were plated at 5×10^5 cells/well in 24-well plates (Falcon) in RPMI 1640 medium containing 10% BGS. The cells were allowed to adhere for 2 h and then used for the experiments after washing with phosphate-buffered-saline (PBS) to remove the unattached cells.
Nitric oxide (NO) accumulation in the supernatant was determined as previously reported (28). Briefly, rat alveolar macrophages were stimulated with LPS (10 ng/ml) or LPS plus phospholipids for 24 h. Culture supernatants (usually […]) were combined with an equal volume of Greiss reagent, and the samples were incubated at room temperature for 10 min before the absorbance was quantified at 550 nm. With the use of a standard curve, the nmol of NO produced were determined and normalized to total cell number in each sample.

[2] = test system: differentiated U937 cells; assay: LPS-induced TNF-α secretion by differentiated U937 cells; assay type: cell-based, human; settings: LPS 10 ng/ml, 6 h, liposomes; LPS without phospholipid = 100%
Protocol: as §1, §2
FIG. 3. […] Surfactant lipid (SL) and POPG were dried under nitrogen, and hydrated at 37° C. for 1 h. (A) SL and POPG were mixed in organic solvents prior to drying and hydrating and subsequently liposomes were produced. (B) SL and POPG were made as independent populations of liposomes that were subsequently mixed prior to macrophage treatment. 10 ng/ml of LPS and different concentrations of liposome mixtures were added to monolayer cultures of differentiated U937 cells. 6 h after stimulation, media were collected and TNF-α production was determined. LPS stimulation without phospholipid was set as 100%. […] The average TNF-α production upon LPS stimulation was 7.0±0.2 ng/ml.
U937 cells were induced to differentiate by treatment with 10 nM phorbol myristate acetate (PMA) for 48 h. The cells (1.3×10^5/well) were placed in 96-well plates and further incubated in the absence of PMA for 24 h in RPMI 1640 medium containing 10% BGS. Rat alveolar macrophages (5×10^5/well) were incubated in 24-well plates for 2 h after isolation. The indicated concentration of phospholipids was added to the cultures 30 min before adding LPS. After LPS addition cultures were incubated for 6 h at 37° C. at an atmosphere of 95% air and 5% CO2. At the end of the incubation period the medium was collected and assayed for TNF-α concentrations using an ELISA kit.
Surfactant lipids were isolated from the bronchioalveolar lavage of Sprague-Dawley rats, 28 days after intratracheal instillation of 25 mg of silica (˜125 mg/kg). Initially, the surfactant was purified by the method of Hawgood et. al. (25) using NaBr density gradient centrifugation. The purified surfactant was extracted with butanol (26) and segregated into butanol-soluble and -insoluble material.

U937 macrophages = assay: TNFα in U937 macrophages stimulated with smooth LPS, with SP-A and PtdGro; assay type: cell-based; settings: 100 ng/ml smooth LPS, 6 hours, lipid 20 μg/ml
Protocol: U937 macrophages were stimulated with 100 ng/ml smooth LPS for 6 hours. The culture medium was harvested and assayed for the presence of TNFα by ELISA. Control cultures received no additions. SP-A was added as indicated at 10 μg/ml. Saturated-(16:0/16:0)-PtdGro was added at 20 μg/ml. Unsaturated-(18:1/18:1)-PtdGro was added at 20 μg/ml.

Molecule | LPS-induced NO production [1] | LPS-induced TNF-α production [2] | anti-inflammatory effects on LPS stimulated macrophages (TNFα) (U937 macrophages)
sphingomyelin [SM] | no significant effect | no significant effect | –
CCCCCCCC/C=C\CCCCCCCC(=O)OC[C@H](COP(=O)(O)OCC(O)CO)OC(=O)CCCCCCC/C=C\CCCCCCCC (stereo partly drawn) [unsaturated-PtdGro, dioleoyl-phosphatidylglycerol] | – | – | potent anti-inflammatory effects
CCCCCCCCCCCCCCCCCC(=O)OCC(COP(=O)(O)OCC(O)CO)OC(=O)CCCCCCCCCCCCCCCCC (stereo not drawn) [18:0, distearoyl-phosphatidylglycerol] | failed to antagonize | failed to antagonize | –
CCCCCCCCCCCC(=O)OCC(COP(=O)(O)OCC(O)CO)OC(=O)CCCCCCCCCCC (stereo not drawn) [12:0, dilauroyl-phosphatidylglycerol] | – | modest antagonists | –
phosphatidylserine [PS] | less effective than PI and POPG | less effective than PI and POPG | –
phosphatidylethanolamine [PE] | no significant effect | no significant effect | –
CCCCCCCC(=O)OCC(COP(=O)(O)OCC(O)CO)OC(=O)CCCCCCC (stereo not drawn) [8:0, dioctanoyl-phosphatidylglycerol] | failed to antagonize | failed to antagonize | –
